Reference: PMC5382172 (Frontiers in Molecular Neuroscience, 2017)

Key:
[1] = target: T1, GluClβWT (GLC-2) homomeric receptor (Caenorhabditis elegans, UniProt Q17328); experiment: Whole-cell patch clamp in CHO cells transfected with GluClβWT subunit alone; format: cell-based; details: βWT alone, 500 nM IVM, -60 mV
T1 construct: entry codes of the full-length subunits used in this study; expressed in transfected cells; host or cells: CHO cells, transient transfection, pcDNA3.1
T1 sequence (Q17328 23-434): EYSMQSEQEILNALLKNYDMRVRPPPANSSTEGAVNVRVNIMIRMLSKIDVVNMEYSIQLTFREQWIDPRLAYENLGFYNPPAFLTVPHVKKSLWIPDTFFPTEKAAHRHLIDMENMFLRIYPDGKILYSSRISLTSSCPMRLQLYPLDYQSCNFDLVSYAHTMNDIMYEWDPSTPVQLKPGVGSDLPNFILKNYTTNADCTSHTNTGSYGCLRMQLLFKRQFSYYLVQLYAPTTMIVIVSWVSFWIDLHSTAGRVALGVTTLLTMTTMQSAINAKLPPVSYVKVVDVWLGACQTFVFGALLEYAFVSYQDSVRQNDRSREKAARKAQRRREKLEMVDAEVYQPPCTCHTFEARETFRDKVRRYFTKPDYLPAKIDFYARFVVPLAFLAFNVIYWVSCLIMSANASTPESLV
Procedure: (§1) Chinese hamster ovary (CHO) cells were cultured as previously (Bar-Lev et al., [2011]) in Dulbecco’s Modified Eagle Medium (DMEM) containing 10% fetal calf serum, 2 mM glutamax, 100 Units/ml penicillin G and 100 μg/ml streptomycin, and grown in 5% CO2 at 37°C under 90%–95% humidity. The cells were seeded on glass coverslips (13-mm diameter) placed in a 24-multiwell plate. […] For the expression of GluCl receptors, cells were transiently co-transfected with pcDNA3.1 plasmids containing the ORFs of interest using transit-LT1 transfection reagent (Mirus, Madison, WI, USA), according to the manufacturer’s protocol. The cDNAs encoding the C. elegans GluClα (GLC-1) or its mutated versions and the GluClβ (GLC-2) subunits (200–600 ng per well) were used at 1:1 ratio. The pIRES-CD8 plasmid (200 ng per well) was added to enable the visualization of the expressing cells by beads coated with anti-CD8 antibodies (Invitrogen). […]
(§2) Whole-cell patch clamp recordings were performed as described previously (Bar-Lev et al., [2011]) in CHO cells that were prepared as detailed above. […] The currents were measured with an Axopatch 200B patch-clamp amplifier (Molecular Devices, Sunnyvale, CA, USA) and a Digidata 1440A interface (Molecular Devices). […]

GluClαP192Y/βWT receptor = target: T2, GluClαP192Y/βWT receptor (Caenorhabditis elegans, UniProt G5EBR3+Q17328, P192Y); experiment: Whole-cell patch clamp in CHO cells, GluClαP192Y/βWT receptor; format: cell-based; details: 500 nM IVM, -60 mV
T2 construct: entry codes of the full-length subunits used in this study; expressed in transfected cells; host or cells: CHO cells, transient co-transfection 1:1, pcDNA3.1
T2 sequence (G5EBR3 21-461 P192Y, one chain of several): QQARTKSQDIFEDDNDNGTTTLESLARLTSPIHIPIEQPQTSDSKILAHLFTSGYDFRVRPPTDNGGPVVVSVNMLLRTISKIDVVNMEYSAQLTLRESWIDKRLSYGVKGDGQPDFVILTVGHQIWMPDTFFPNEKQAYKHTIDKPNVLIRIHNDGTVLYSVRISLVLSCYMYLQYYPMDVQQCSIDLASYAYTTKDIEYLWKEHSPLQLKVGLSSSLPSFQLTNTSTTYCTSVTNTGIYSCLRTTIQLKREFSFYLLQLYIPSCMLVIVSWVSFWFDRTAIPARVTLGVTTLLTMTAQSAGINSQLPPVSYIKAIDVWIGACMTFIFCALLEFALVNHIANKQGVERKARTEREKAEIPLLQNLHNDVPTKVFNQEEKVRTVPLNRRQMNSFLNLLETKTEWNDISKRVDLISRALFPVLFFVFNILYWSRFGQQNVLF
Procedure: as §1, §2

GluClαY194R/βWT receptor = target: T3, GluClαY194R/βWT receptor (Caenorhabditis elegans, UniProt G5EBR3+Q17328, Y194R); experiment: Whole-cell patch clamp in CHO cells, GluClαY194R/βWT receptor; format: cell-based; details: 500 nM IVM, -60 mV
T3 construct: entry codes of the full-length subunits used in this study; expressed in transfected cells; host or cells: CHO cells, transient co-transfection 1:1, pcDNA3.1
T3 sequence (G5EBR3 21-461 Y194R, one chain of several): as the sequence (G5EBR3 21-461 P192Y, one chain of several) above, with Y172P, Y174R counted along it
Procedure: as §1, §2

wild type GluClα/βR = test system: wild type GluClα/βR; design: method as in Cully et al., [1994]; details: 5 nM IVM, Xenopus oocytes; ref Cully et al., [1994]; cited from earlier work

CC[C@H](C)[C@H]1O[C@]2(CC[C@@H]1C)C[C@@H]1C[C@@H](C/C=C(\C)[C@@H](O[C@H]3C[C@H](OC)[C@@H](O[C@H]4C[C@H](OC)[C@@H](O)[C@H](C)O4)[C@H](C)O3)[C@@H](C)/C=C/C=C3\CO[C@@H]4[C@H](O)C(C)=C[C@@H](C(=O)O1)[C@]34O)O2 [IVM, ivermectin]
IVM (500 nM) Amplitude [1]: 0.0 ± 0.0 (10) nA
IVM (500 nM) Amplitude (GluClαP192Y/βWT receptor): 1.2 ± 0.2 nA
IVM (500 nM) Amplitude (GluClαY194R/βWT receptor): 2.1 ± 0.5 nA
potentiation of Glu-sensitive currents by IVM (wild type GluClα/βR): ~ 5 fold
